Results taken from patent US5326882A, “Chemiluminescent 3-(substituted Adamant-2'-Ylidene) 1,2-dioxetanes” (Tropix, Inc., priority 1992, dated 1994).

Experiments:
[1] = molecular target: T1, alkaline phosphatase-labeled DNA probe (Bos taurus, UniProt P19111); experiment: Alkaline phosphatase-labeled DNA probe detection in membrane with and without BDMQ blocking step (Example XV); settings: for Detection limit (in picograms DNA) 5. min. exp.: five minute exposure 40 minutes after dioxetane addition; for Detection limit (in picograms DNA) 1 min. exp.: one minute exposure 77 minutes after dioxetane addition
T1 construct: purchased Tropix, Inc

alkaline phosphatase = alkaline phosphatase (Bos taurus, UniProt P19111); experiment: Chemiluminescent signal and signal:background with enhancer polymers (Example XVII); assay type: biochemical
Protocol: Four sets of three tubes each, each tube in each set containing 450 μl of a 0.4 mM aqueous solution of one of the four 1,2-dioxetanes being compared in 0.1M diethanolamine containing 1 mM magnesium chloride, 0.02% sodium azide and 0.1% of the enhancer polymer, pH 10.0 (substrate buffer) were prepared and the background signal from each tube measured using a Berthold LB 952T luminometer (Berthold Instruments; Wildbad, Federal Republic of Germany).
Next, 50 μl of an aqueous solution, 2.83×10^-12 M of alkaline phosphatase in 0.1M diethanolamine containing 1 mM magnesium chloride, 0.02% sodium azide, pH 10.0, (final enzyme concentration 2.83×10^-13 M) was added to each tube and the chemiluminescent signals were measured in the luminometer at 5 and 20 minutes. The intensity of the chemiluminescent signals and the signal: background ratios obtained for each of the four 1,2-dioxetanes in the presence of the enhancer polymers are shown in Table III below.
The enhancer polymers used, and the symbols for such polymers used in Table III, were the following: […]

[2] = molecular target: T2, alkaline phosphatase (calf intestine; Biozyme) (Bos taurus, UniProt P19111); experiment: Total dephosphorylation, chemiluminescence decay (Example XIII); assay type: biochemical; settings: 30° C., carbonate/bicarbonate buffer
T2 construct: purchased Biozyme; host or cells: calf intestine
T2 sequence (P19111 20-506 limits assumed): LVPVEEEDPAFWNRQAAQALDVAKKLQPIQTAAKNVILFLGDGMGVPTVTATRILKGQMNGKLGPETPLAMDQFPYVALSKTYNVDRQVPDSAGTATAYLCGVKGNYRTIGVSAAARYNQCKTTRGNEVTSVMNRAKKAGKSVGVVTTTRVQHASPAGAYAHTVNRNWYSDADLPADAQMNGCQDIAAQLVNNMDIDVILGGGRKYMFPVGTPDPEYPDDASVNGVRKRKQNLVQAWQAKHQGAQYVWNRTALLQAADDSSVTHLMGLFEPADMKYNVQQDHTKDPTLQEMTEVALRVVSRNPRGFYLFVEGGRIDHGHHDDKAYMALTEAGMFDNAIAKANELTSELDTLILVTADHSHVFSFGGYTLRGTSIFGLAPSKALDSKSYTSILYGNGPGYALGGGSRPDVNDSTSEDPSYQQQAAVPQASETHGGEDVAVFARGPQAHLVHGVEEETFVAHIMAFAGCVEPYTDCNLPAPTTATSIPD

alkaline phosphatase, sequence (P19111 20-506 limits assumed): as above
T1 sequence (P19111 20-506 limits assumed): as above
T1 sequence (P02701 25-152 partner): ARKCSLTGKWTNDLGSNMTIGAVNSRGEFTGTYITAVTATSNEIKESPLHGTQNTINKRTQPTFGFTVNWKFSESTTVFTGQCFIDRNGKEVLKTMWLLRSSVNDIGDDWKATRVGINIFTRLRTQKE

COC1(c2cccc(OP(=O)(O)O)c2)OOC12C1CC3CC(C1)CC2C3 (centres unmarked) [AMPPD, 3-(4-methoxyspiro[1,2-dioxetane-3,2'-triyclo[3.3.1.1^3,7]decan]-4-yl)phenyl phosphate, reference compound]
Detection limit (in picograms DNA) 5. min. exp. ([1]; BDMQ blocking step): 0.625 picograms DNA
Detection limit (in picograms DNA) 1 min. exp. ([1]; BDMQ blocking step): 1.250 picograms DNA
Detection limit (in picograms DNA) 5. min. exp. ([1]; no BDMQ blocking step): 2.500 picograms DNA
Detection limit (in picograms DNA) 1 min. exp. ([1]; no BDMQ blocking step): 5.000 picograms DNA
S/N (alkaline phosphatase; polymer BAEDM, 5 min): 107.6
SIGNAL (alkaline phosphatase; polymer BAEDM, 5 min): 9275.3
S/N (alkaline phosphatase; polymer BAEDM, 20 min): 306.5
SIGNAL (alkaline phosphatase; polymer BAEDM, 20 min): 26529.1
S/N (alkaline phosphatase; polymer BAEDM, time 0): 1.0
SIGNAL (alkaline phosphatase; polymer BAEDM, time 0 (background, before enzyme)): 217.3
S/N (alkaline phosphatase; polymer BZ, 5 min): 18.3
SIGNAL (alkaline phosphatase; polymer BZ, 5 min): 2738.0
S/N (alkaline phosphatase; polymer BZ, 20 min): 30.9
SIGNAL (alkaline phosphatase; polymer BZ, 20 min): 4611.5
S/N (alkaline phosphatase; polymer BZ, time 0): 1.0
SIGNAL (alkaline phosphatase; polymer BZ, time 0 (background, before enzyme)): 149.4
S/N (alkaline phosphatase; polymer DAA TMQ, 5 min): 46.4
SIGNAL (alkaline phosphatase; polymer DAA TMQ, 5 min): 8354.4
S/N (alkaline phosphatase; polymer DAA TMQ, 20 min): 83.1
SIGNAL (alkaline phosphatase; polymer DAA TMQ, 20 min): 14957.3
S/N (alkaline phosphatase; polymer DAA TMQ, time 0): 1.0
SIGNAL (alkaline phosphatase; polymer DAA TMQ, time 0 (background, before enzyme)): 180.0
S/N (alkaline phosphatase; polymer DME(OH)B, 5 min): 21.4
SIGNAL (alkaline phosphatase; polymer DME(OH)B, 5 min): 3462.3
S/N (alkaline phosphatase; polymer DME(OH)B, 20 min): 52.9
SIGNAL (alkaline phosphatase; polymer DME(OH)B, 20 min): 8540.9
S/N (alkaline phosphatase; polymer DME(OH)B, time 0): 1.0
SIGNAL (alkaline phosphatase; polymer DME(OH)B, time 0 (background, before enzyme)): 161.6
S/N (alkaline phosphatase; polymer DMEB, 5 min): 52.6
SIGNAL (alkaline phosphatase; polymer DMEB, 5 min): 9401.5
S/N (alkaline phosphatase; polymer DMEB, 20 min): 114.4
SIGNAL (alkaline phosphatase; polymer DMEB, 20 min): 20434.9
S/N (alkaline phosphatase; polymer DMEB, time 0): 1.0
SIGNAL (alkaline phosphatase; polymer DMEB, time 0 (background, before enzyme)): 178.6
S/N (alkaline phosphatase; polymer DMQ TEQ, 5 min): 133.9
SIGNAL (alkaline phosphatase; polymer DMQ TEQ, 5 min): 32820.5
S/N (alkaline phosphatase; polymer DMQ TEQ, 20 min): 322.1
SIGNAL (alkaline phosphatase; polymer DMQ TEQ, 20 min): 78977.4
S/N (alkaline phosphatase; polymer DMQ TEQ, time 0): 1.0
SIGNAL (alkaline phosphatase; polymer DMQ TEQ, time 0 (background, before enzyme)): 245.2
SIGNAL (alkaline phosphatase; polymer EMERALD (sapphire and fluorescein), time 0 (background, before enzyme)): 2902.1
S/N (alkaline phosphatase; polymer EMERALD, 5 min): 109.4
SIGNAL (alkaline phosphatase; polymer EMERALD, 5 min): 317571.6
S/N (alkaline phosphatase; polymer EMERALD, 20 min): 282.1
SIGNAL (alkaline phosphatase; polymer EMERALD, 20 min): 818775.8
S/N (alkaline phosphatase; polymer EMERALD, time 0): 1.0
S/N (alkaline phosphatase; polymer MPB, 5 min): 94.3
SIGNAL (alkaline phosphatase; polymer MPB, 5 min): 19971.8
S/N (alkaline phosphatase; polymer MPB, 20 min): 196.9
SIGNAL (alkaline phosphatase; polymer MPB, 20 min): 41701.8
S/N (alkaline phosphatase; polymer MPB, time 0): 1.0
SIGNAL (alkaline phosphatase; polymer MPB, time 0 (background, before enzyme)): 211.8
S/N (alkaline phosphatase; polymer NONE, 5 min): 21.5
SIGNAL (alkaline phosphatase; polymer NONE, 5 min, enzyme 2.83×10^-13 M): 3706.0
S/N (alkaline phosphatase; polymer NONE, 20 min): 34.4
SIGNAL (alkaline phosphatase; polymer NONE, 20 min, enzyme 2.83×10^-13 M): 5944.8
S/N (alkaline phosphatase; polymer NONE, time 0): 1.0
SIGNAL (alkaline phosphatase; polymer NONE, time 0 (background, before enzyme)): 172.6
S/N (alkaline phosphatase; polymer S/TMQ(1:2), 5 min): 20.2
SIGNAL (alkaline phosphatase; polymer S/TMQ(1:2), 5 min): 3437.0
S/N (alkaline phosphatase; polymer S/TMQ(1:2), 20 min): 58.9
SIGNAL (alkaline phosphatase; polymer S/TMQ(1:2), 20 min): 9994.7
S/N (alkaline phosphatase; polymer S/TMQ(1:2), time 0): 1.0
SIGNAL (alkaline phosphatase; polymer S/TMQ(1:2), time 0 (background, before enzyme)): 169.8
S/N (alkaline phosphatase; polymer S/TMQ(1:4), 5 min): 35.7
SIGNAL (alkaline phosphatase; polymer S/TMQ(1:4), 5 min): 5931.5
S/N (alkaline phosphatase; polymer S/TMQ(1:4), 20 min): 95.4
SIGNAL (alkaline phosphatase; polymer S/TMQ(1:4), 20 min): 15866.3
S/N (alkaline phosphatase; polymer S/TMQ(1:4), time 0): 1.0
SIGNAL (alkaline phosphatase; polymer S/TMQ(1:4), time 0 (background, before enzyme)): 116.3
SIGNAL (alkaline phosphatase; polymer SAPPHIRE (BDMQ), time 0 (background, before enzyme)): 241.4
S/N (alkaline phosphatase; polymer SAPPHIRE, 5 min): 159.3
SIGNAL (alkaline phosphatase; polymer SAPPHIRE, 5 min): 38457.8
S/N (alkaline phosphatase; polymer SAPPHIRE, 20 min): 353.6
SIGNAL (alkaline phosphatase; polymer SAPPHIRE, 20 min): 85359.8
S/N (alkaline phosphatase; polymer SAPPHIRE, time 0): 1.0
SIGNAL (alkaline phosphatase; polymer TBQ-FLUOR (TBQ and fluorescein), time 0 (background, before enzyme)): 4961.2
S/N (alkaline phosphatase; polymer TBQ-FLUOR, 5 min): 113.9
SIGNAL (alkaline phosphatase; polymer TBQ-FLUOR, 5 min): 57271.6
S/N (alkaline phosphatase; polymer TBQ-FLUOR, 20 min): 291.4
SIGNAL (alkaline phosphatase; polymer TBQ-FLUOR, 20 min): 1445675.6
S/N (alkaline phosphatase; polymer TBQ-FLUOR, time 0): 1.0
S/N (alkaline phosphatase; polymer TBQ, 5 min): 191.2
SIGNAL (alkaline phosphatase; polymer TBQ, 5 min): 94429.4
S/N (alkaline phosphatase; polymer TBQ, 20 min): 433.9
SIGNAL (alkaline phosphatase; polymer TBQ, 20 min): 214319.4
S/N (alkaline phosphatase; polymer TBQ, time 0): 1.0
SIGNAL (alkaline phosphatase; polymer TBQ, time 0 (background, before enzyme)): 493.9
S/N (alkaline phosphatase; polymer TEQ, 5 min): 115.3
SIGNAL (alkaline phosphatase; polymer TEQ, 5 min): 25095.8
S/N (alkaline phosphatase; polymer TEQ, 20 min): 229.7
SIGNAL (alkaline phosphatase; polymer TEQ, 20 min): 50020.0
S/N (alkaline phosphatase; polymer TEQ, time 0): 1.0
SIGNAL (alkaline phosphatase; polymer TEQ, time 0 (background, before enzyme)): 217.8
S/N (alkaline phosphatase; polymer TMQ, 5 min): 65.8
SIGNAL (alkaline phosphatase; polymer TMQ, 5 min): 10525.8
S/N (alkaline phosphatase; polymer TMQ, 20 min): 141.1
SIGNAL (alkaline phosphatase; polymer TMQ, 20 min): 22558.3
S/N (alkaline phosphatase; polymer TMQ, time 0): 1.0
SIGNAL (alkaline phosphatase; polymer TMQ, time 0 (background, before enzyme)): 159.9
Total Decay Time [2]: 60 min
Decay Rate I ([2]; RLU's per minute): 0.1 RLU's per minute
Decay Rate II ([2]; RLU's per minute): 0.3 RLU's per minute
Decay Rate III ([2]; RLU's per minute): 0.8 RLU's per minute
